The values below come from US6767917B1, “Amorphous torasemide modification” (Pliva d.d., priority 2000, dated 2004).

A short description of data set [1]: Release of the active substance in water (USP 24). In kind it is physicochemical. The settings on record: for Released torasemide: water, USP 24, 37° C., 50 rpm, 1000 ml. The procedure:
The amorphous torasemide modification as such is suitable for the preparation of pharmaceutical prepartions having short-term or prolonged actions. The amorphous torasemide modification prepared according to Example 1 of the present invention was subjected to the test of the release of the active substance in water at a temperature of 37° C. (USP 24) and the results are represented in Table 1. [table]

A short description of data set [2]: Solid-state stability of the amorphous modification (conversion into crystal modifications). The following applies: normal storage conditions, at crushing and compressing. It is filed as physicochemical.

Consider `Cc1cccc(Nc2ccncc2S(=O)(=O)NC(=O)NC(C)C)c1` [amorphous torasemide modification, N-(1-methylethylaminocarbonyl)-4-(3-methyl-phenylamino)-3-pyridinesulfonamide], for which the “Release profile in comparison with the known crystal torasemide modifications” value in data set [1] (in water (USP 24), same medium) was “slower release”. The Released torasemide in data set [1] (time 0 minutes) worked out at 0%; in data set [1] (time 15 minutes), 6.8%; in data set [1] (time 30 minutes), 10.2%; in data set [1] (time 45 minutes), 13.0%; in data set [1] (time 60 minutes) it was 15.9%; in data set [1] (time 90 minutes), 20.4%. For the same molecule, in data set [1] (time 120 minutes), the Released torasemide worked out at 24.9%. Also, the “Stability (no conversion into crystal modification I, II or III)” value in data set [2] is “stable”.
